Columns and labels:
[1] = test system: Tyrosine-protein kinase ABL1 (Homo sapiens), P00519 [F317L]; settings: Compound concentration 1000.0 nM
[2] = target: RAC-beta serine/threonine-protein kinase (Homo sapiens) (UniProt P31751); settings: Compound concentration 1000.0 nM
[3] = test system: ALK tyrosine kinase receptor (Homo sapiens), Q9UM73 [L1196M]; settings: Compound concentration 1000.0 nM
[4] = target: Calcium/calmodulin-dependent protein kinase type 1G (Homo sapiens) (UniProt Q96NX5); settings: Compound concentration 1000.0 nM
[5] = target: Calcium/calmodulin-dependent protein kinase kinase 1 (Homo sapiens) (UniProt Q8N5S9); settings: Compound concentration 1000.0 nM
[6] = target: Cyclin-dependent kinase 19 (Homo sapiens) (UniProt Q9BWU1); settings: Compound concentration 1000.0 nM
[7] = target: Cyclin-dependent kinase 7 (Homo sapiens) (UniProt P50613); settings: Compound concentration 1000.0 nM
[8] = target: T1, Myosin-IIIb (Homo sapiens) (UniProt Q8WXR4); settings: Compound concentration 1000.0 nM
T1 sequence (whole entry): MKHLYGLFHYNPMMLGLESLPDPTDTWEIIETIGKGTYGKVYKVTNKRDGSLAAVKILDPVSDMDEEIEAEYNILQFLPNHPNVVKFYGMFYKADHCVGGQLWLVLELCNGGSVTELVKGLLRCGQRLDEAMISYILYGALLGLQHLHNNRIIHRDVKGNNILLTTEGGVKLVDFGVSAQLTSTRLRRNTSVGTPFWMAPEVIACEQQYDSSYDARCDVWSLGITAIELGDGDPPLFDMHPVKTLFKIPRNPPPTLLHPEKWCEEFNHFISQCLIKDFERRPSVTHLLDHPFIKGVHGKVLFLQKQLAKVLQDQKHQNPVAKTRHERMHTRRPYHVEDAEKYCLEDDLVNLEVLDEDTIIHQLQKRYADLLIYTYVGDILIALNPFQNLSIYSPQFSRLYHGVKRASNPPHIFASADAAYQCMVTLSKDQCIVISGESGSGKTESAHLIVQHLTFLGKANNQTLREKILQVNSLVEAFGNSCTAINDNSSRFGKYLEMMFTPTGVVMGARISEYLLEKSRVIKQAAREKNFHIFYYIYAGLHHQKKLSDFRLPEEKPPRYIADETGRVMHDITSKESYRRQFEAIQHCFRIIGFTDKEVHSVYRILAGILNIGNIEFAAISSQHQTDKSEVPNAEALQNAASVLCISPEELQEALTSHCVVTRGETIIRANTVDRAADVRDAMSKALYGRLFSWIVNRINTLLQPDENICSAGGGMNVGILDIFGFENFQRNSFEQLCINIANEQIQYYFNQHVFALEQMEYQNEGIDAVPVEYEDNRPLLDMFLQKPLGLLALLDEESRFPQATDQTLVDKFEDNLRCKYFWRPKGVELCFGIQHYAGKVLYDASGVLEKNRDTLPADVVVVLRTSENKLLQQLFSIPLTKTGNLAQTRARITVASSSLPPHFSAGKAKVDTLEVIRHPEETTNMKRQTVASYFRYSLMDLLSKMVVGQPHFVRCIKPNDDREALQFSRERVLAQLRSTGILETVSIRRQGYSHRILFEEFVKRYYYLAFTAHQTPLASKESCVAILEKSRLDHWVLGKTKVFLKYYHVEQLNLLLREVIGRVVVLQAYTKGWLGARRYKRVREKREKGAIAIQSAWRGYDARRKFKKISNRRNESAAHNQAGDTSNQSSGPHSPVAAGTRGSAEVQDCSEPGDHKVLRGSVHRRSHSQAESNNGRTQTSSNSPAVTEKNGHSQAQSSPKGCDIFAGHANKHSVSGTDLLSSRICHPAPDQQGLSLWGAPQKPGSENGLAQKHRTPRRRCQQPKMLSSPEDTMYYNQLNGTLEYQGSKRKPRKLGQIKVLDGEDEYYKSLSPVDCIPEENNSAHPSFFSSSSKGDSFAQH

[9] = target: Serine/threonine-protein kinase Nek4 (Homo sapiens) (UniProt P51957); settings: Compound concentration 1000.0 nM
[10] = target: Serine/threonine-protein kinase Nek6 (Homo sapiens) (UniProt Q9HC98); settings: Compound concentration 1000.0 nM
[11] = target: Serine/threonine-protein kinase Nek7 (Homo sapiens) (UniProt Q8TDX7); settings: Compound concentration 1000.0 nM
[12] = test system: Phosphatidylinositol 4,5-bisphosphate 3-kinase catalytic subunit alpha isoform (Homo sapiens), P42336 [M1043I]; settings: Compound concentration 1000.0 nM
Chain of Phosphatidylinositol 4,5-bisphosphate 3-kinase catalytic subunit alpha isoform (Homo sapiens), P42336 [M1043I] (P42336 whole entry M1043I, canonical isoform): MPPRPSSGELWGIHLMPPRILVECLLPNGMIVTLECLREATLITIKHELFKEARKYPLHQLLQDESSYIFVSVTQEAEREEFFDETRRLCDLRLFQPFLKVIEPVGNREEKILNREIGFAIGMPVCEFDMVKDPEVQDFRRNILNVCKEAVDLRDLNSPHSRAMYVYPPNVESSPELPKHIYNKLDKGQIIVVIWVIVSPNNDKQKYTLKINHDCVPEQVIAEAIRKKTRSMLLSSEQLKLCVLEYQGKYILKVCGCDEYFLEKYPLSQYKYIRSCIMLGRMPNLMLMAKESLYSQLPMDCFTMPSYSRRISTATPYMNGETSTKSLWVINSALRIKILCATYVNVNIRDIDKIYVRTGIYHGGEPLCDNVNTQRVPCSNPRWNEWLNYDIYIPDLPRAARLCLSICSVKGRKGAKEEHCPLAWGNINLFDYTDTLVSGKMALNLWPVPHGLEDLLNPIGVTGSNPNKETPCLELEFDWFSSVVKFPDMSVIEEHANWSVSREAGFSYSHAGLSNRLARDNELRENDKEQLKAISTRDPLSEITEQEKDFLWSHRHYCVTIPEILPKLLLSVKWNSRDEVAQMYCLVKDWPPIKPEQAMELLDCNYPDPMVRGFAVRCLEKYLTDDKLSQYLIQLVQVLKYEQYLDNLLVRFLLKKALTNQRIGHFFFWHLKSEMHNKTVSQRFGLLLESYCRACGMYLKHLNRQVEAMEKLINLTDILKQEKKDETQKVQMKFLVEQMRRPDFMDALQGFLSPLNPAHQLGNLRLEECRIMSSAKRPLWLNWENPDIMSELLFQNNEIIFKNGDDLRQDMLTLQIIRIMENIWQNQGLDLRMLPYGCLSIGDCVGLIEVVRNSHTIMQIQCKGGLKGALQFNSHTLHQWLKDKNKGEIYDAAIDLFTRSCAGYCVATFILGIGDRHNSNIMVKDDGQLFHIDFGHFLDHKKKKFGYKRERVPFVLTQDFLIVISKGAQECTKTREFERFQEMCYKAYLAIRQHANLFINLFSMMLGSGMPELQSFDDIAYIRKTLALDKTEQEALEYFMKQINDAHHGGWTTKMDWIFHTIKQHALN

[13] = target: Serine/threonine-protein kinase pim-2 (Homo sapiens) (UniProt Q9P1W9); settings: Compound concentration 1000.0 nM
Chain of Serine/threonine-protein kinase pim-2 (Homo sapiens) (Q9P1W9 whole entry, looked up): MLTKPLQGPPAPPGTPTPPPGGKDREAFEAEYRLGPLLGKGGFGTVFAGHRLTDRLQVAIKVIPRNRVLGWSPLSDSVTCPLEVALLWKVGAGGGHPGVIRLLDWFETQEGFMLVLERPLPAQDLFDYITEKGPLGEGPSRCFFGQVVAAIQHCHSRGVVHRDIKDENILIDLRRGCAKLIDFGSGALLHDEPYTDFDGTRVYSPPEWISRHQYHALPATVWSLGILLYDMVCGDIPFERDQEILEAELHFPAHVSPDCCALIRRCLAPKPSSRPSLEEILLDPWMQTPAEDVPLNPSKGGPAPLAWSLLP

[14] = target: Serine/threonine-protein kinase PLK1 (Homo sapiens) (UniProt P53350); settings: Compound concentration 1000.0 nM
[15] = target: STE20/SPS1-related proline-alanine-rich protein kinase (Homo sapiens) (UniProt Q9UEW8); settings: Compound concentration 1000.0 nM
[16] = target: Serine/threonine-protein kinase TAO1 (Homo sapiens) (UniProt Q7L7X3); settings: Compound concentration 1000.0 nM
Chain of Serine/threonine-protein kinase TAO1 (Homo sapiens) (Q7L7X3 whole entry): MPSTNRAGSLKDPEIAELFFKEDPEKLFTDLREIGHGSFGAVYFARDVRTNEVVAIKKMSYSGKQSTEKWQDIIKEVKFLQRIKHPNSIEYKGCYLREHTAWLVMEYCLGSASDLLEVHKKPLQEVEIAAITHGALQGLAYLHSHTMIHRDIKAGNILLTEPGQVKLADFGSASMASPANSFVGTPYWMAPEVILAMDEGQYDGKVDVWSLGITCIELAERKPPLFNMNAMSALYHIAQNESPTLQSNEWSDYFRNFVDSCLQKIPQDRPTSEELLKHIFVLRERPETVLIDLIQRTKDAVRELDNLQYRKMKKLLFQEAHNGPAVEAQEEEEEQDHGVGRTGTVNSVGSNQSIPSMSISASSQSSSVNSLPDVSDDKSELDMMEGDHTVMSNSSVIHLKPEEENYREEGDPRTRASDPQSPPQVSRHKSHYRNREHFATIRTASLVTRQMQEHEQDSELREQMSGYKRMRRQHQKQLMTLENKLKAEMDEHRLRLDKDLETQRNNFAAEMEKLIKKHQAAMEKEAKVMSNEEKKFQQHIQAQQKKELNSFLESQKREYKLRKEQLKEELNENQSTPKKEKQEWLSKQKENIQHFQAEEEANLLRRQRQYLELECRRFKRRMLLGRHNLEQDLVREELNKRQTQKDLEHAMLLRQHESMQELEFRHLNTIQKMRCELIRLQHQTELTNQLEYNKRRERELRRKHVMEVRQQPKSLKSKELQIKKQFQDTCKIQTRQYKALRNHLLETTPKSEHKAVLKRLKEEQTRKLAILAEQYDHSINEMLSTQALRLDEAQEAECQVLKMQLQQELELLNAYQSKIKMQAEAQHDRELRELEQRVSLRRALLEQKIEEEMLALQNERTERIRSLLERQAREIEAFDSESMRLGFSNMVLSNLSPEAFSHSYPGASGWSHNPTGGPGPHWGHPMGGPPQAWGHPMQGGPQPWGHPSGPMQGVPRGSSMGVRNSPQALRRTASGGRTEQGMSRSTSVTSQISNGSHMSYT

[17] = target: T2, Tyrosine-protein kinase ZAP-70 (Homo sapiens) (UniProt P43403); settings: Compound concentration 1000.0 nM
T2 sequence (whole entry): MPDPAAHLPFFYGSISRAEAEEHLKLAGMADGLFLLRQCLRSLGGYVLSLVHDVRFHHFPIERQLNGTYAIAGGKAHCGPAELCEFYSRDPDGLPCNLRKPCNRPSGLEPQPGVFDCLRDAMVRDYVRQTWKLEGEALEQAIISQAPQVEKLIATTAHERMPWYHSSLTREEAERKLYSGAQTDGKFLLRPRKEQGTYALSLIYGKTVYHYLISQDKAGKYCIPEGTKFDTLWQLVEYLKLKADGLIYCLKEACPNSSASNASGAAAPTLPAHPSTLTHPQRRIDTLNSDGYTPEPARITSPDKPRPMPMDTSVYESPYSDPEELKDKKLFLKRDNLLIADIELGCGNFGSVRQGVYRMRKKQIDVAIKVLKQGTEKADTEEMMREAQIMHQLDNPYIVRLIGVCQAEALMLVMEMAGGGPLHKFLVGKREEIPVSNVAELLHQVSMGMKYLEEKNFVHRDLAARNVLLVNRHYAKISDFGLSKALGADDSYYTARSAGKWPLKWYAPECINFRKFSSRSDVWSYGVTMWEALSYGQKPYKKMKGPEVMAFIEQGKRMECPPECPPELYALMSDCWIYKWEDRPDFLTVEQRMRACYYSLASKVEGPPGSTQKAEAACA

[18] = target: D(4) dopamine receptor (Homo sapiens) (UniProt P21917); settings: Compound concentration 10.0 uM
Chain of D(4) dopamine receptor (Homo sapiens) (P21917 whole entry): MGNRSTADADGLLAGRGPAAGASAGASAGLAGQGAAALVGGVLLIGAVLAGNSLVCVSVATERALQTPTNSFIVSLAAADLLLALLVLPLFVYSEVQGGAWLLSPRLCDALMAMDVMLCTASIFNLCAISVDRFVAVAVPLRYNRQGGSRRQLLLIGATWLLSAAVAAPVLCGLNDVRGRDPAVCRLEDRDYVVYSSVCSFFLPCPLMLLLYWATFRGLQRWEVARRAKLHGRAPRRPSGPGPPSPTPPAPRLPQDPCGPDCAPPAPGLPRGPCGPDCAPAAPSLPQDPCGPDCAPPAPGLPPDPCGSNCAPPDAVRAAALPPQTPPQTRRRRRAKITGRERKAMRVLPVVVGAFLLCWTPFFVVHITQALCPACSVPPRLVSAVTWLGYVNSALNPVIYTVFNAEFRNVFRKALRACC

Chain of ALK tyrosine kinase receptor (Homo sapiens), Q9UM73 [L1196M] (Q9UM73 whole entry L1196M, looked up): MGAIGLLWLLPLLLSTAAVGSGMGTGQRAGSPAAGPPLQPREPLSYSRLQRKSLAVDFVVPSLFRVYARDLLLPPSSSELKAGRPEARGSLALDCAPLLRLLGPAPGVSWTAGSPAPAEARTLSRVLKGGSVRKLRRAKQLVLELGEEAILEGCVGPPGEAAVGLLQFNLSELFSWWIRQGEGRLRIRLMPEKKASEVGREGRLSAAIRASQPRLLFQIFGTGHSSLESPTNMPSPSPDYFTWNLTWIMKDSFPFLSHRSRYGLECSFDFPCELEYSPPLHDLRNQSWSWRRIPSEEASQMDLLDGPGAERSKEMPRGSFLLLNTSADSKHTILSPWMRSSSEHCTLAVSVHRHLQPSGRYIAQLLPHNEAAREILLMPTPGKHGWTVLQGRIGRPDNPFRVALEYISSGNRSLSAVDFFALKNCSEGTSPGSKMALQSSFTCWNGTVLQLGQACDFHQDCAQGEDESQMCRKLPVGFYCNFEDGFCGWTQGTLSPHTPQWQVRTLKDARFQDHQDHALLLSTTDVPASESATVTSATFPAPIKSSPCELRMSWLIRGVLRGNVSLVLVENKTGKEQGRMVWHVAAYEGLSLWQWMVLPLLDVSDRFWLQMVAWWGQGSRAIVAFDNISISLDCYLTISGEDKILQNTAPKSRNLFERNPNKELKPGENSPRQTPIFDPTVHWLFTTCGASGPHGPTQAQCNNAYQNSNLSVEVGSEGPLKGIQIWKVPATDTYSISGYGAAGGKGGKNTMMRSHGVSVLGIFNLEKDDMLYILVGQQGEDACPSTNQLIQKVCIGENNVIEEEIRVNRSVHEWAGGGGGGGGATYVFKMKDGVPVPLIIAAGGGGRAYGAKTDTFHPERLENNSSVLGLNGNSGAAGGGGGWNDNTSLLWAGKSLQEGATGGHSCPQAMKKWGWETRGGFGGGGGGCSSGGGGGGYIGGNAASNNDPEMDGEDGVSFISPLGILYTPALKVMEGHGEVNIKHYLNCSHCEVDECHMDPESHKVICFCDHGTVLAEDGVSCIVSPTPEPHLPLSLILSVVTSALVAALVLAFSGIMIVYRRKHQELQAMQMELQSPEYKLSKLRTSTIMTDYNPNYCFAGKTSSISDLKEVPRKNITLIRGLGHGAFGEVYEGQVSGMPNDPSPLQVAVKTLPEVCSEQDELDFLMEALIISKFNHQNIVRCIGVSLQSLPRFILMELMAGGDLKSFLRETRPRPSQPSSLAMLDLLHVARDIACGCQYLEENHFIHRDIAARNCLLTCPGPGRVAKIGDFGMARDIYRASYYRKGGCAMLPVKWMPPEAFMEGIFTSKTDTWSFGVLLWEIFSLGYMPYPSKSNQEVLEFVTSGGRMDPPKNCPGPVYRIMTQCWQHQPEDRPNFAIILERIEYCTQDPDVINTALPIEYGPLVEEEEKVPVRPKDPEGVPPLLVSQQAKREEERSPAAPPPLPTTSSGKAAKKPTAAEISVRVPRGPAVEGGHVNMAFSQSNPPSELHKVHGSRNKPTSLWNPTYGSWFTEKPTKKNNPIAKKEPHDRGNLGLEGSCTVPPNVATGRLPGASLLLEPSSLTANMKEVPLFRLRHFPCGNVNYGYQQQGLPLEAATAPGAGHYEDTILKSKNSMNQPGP
Chain of RAC-beta serine/threonine-protein kinase (Homo sapiens) (P31751 whole entry): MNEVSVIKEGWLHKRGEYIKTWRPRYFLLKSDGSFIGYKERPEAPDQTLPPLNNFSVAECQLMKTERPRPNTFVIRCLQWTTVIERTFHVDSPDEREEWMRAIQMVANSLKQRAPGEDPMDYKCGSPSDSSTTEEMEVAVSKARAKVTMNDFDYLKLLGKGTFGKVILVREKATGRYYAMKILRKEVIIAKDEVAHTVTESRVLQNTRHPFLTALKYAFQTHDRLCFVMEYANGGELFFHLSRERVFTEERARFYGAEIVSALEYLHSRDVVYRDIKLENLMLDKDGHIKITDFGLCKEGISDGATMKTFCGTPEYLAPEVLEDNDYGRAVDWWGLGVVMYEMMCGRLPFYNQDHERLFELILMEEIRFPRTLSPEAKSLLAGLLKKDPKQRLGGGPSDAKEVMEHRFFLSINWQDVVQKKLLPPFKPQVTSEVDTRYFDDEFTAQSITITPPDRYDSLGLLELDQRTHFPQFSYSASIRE

CCc1ccccc1C(=O)Nc1n[nH]c2c(C)c(F)c(C3C(C#N)=C(C)N(C)C(C)=C3C#N)cc12 [BAY-3827]
inactive: residual activity [1] 89% | residual activity [2] 95% | residual activity [3] 83% | residual activity [4] 90% | residual activity [5] 100% | residual activity [6] 100% | residual activity [7] 90% | residual activity [8] 77% | residual activity [9] 100% | residual activity [10] 75% | residual activity [11] 83% | residual activity [12] 75% | residual activity [13] 99% | residual activity [14] 100% | residual activity [15] 100% | residual activity [16] 100% | residual activity [17] 100% | inhibition [18] -0.18%

CC1=C(C#N)C(c2ccc3c(c2)c(NC(=O)c2ccccc2C)nn3C)C(C#N)=C(C)N1 [BAY-974]
inactive: residual activity [1] 91% | residual activity [2] 100% | residual activity [3] 80% | residual activity [4] 99% | residual activity [5] 100% | residual activity [6] 74% | residual activity [7] 58% | residual activity [8] 100% | residual activity [9] 100% | residual activity [10] 100% | residual activity [11] 96% | residual activity [12] 100% | residual activity [13] 91% | residual activity [14] 85% | residual activity [15] 92% | residual activity [16] 100% | residual activity [17] 90% | inhibition [18] 0.21%

From ChEMBL document CHEMBL4507319 (2021)
